Experimental data from article PMC10576769 (Nature Communications, 2023).
pIC50: −log10 of the molar value.

Key:
[1] = molecular target: T1, LmPC-PLC (Listeria monocytogenes serovar 1/2a, UniProt P33378); assay type: biochemical; conditions: 100% POPC MLVs […], 20 mM MES pH 6.5, 150 mM NaCl, 50 μM ZnSO4, 37 °C, replicate 1
[2] = molecular target: T1, LmPC-PLC; test: biochemical; assay type: biochemical; conditions: for relative activity of LmPC-PLC WT on 4-NPPC (compared to uninhibited activity): Fig. 4g; for Activity of LmPC-PLC towards 4-NPPC (slope): 50 μM ZnSO4
[3] = molecular target: broad-range phospholipase C from Listeria monocytogenes (LmPC-PLC), wild type, mature form (Listeria monocytogenes) (UniProt P33378)

T1 sequence (P33378 52-289 limits assumed): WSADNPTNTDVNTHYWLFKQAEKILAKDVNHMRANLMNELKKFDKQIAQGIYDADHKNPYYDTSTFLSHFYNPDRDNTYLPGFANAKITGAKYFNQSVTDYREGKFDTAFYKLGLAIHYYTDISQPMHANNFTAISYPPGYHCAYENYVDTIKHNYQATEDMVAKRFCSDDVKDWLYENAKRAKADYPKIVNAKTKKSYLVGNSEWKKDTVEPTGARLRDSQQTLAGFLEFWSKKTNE
broad-range phospholipase C from Listeria monocytogenes (LmPC-PLC), wild type, mature form, sequence (P33378 52-289): as the sequence (P33378 52-289 limits assumed) above

CC[C@H](C)[C@H](NC(=O)[C@H](CC(=O)O)NC(=O)[C@H](Cc1c[nH]cn1)NC(=O)[C@@H]1CCCN1C(=O)[C@H](C)NC(=O)[C@H](C)NC(=O)[C@@H]1CCCN1C(=O)[C@@H](NC(=O)[C@H](CCC(N)=O)NC(=O)[C@H](CC(C)C)NC(=O)[C@H](Cc1ccc(O)cc1)NC(=O)[C@H](CCC(=O)O)NC(=O)[C@H](CC(=O)O)NC(=O)[C@H](CS)NC(=O)[C@H](CS)NC(=O)[C@H](C)NC(=O)[C@@H](N)CC(N)=O)[C@@H](C)O)C(=O)N[C@@H](CC(=O)O)C(=O)N[C@@H](CO)C(=O)N[C@@H](CCCCN)C(=O)N[C@@H](CC(C)C)C(=O)N1CCC[C@H]1C(=O)N[C@@H](Cc1c[nH]cn1)C(=O)N[C@@H](CCCCN)C(=O)N[C@@H](CC(C)C)C(=O)N[C@@H](CO)C(=O)O [NS-26]
relative activity on POPC (compared to uninhibited activity), Lm ([1]; Fig. 4f, peptide 10 uM, PC-PLC 50 nM): 0.3051
relative activity of LmPC-PLC WT on POPC (compared to uninhibited activity) ([1]; Fig. 4h, peptide 100 uM as printed in the head (legend and method: 10 μM), enzyme 50 nM): 0.2837
relative activity on 4-NPPC (compared to uninhibited activity), Lm ([2]; Fig. 4e, peptide 100uM, PC-PLC 500 nM, 4-NPPC 1 mM, 20 mM MES pH 6.5, 150 mM NaCl, 500 μM ZnSO4, 37 °C, replicate 1): 0.3179
relative activity of LmPC-PLC WT on 4-NPPC (compared to uninhibited activity) ([2]; as E100, replicate 2): 0.2706
relative activity of LmPC-PLC WT on 4-NPPC (compared to uninhibited activity) ([2]; as E100, replicate 3): 0.2574
relative activity of LmPC-PLC WT on 4-NPPC (compared to uninhibited activity) ([2]; peptide 100 uM, enzyme 500 nM, 4-NPPC 1 mM, 20 mM MES pH 6.5, 150 mM NaCl, 500 μM ZnSO4, 37 °C, replicate 1): 0.2356
pIC50 ([2]; IC50, 95% CI, as IC50, 95% CI from the fit): 4.47 to 5.31
pIC50 ([2]; IC50, LmPC-PLC 500 nM, 4-NPPC 1 mM, 20 mM MES pH 6.5, 150 mM NaCl, 500 μM ZnSO4, 37 °C, four-parameter logistic fit, n = 3): 5.03

[Zn] [Zn]
Activity of LmPC-PLC, 4-NPPC as substrate (slope) ([2]; Zn 500 uM, 0 mM TCEP, LmPC-PLC 500 nM, 4-NPPC 1 mM, replicate 1): 0.0003721
Activity of LmPC-PLC, 4-NPPC as substrate (slope) ([2]; Zn 500 uM, 0 mM TCEP, LmPC-PLC 500 nM, 4-NPPC 1 mM, replicate 2): 0.0004616
Activity of LmPC-PLC, 4-NPPC as substrate (slope) ([2]; Zn 500 uM, 0 mM TCEP, LmPC-PLC 500 nM, 4-NPPC 1 mM, replicate 3): 0.0006377
Activity of LmPC-PLC, 4-NPPC as substrate (slope) ([2]; Zn 5000 uM, 0 mM TCEP, LmPC-PLC 500 nM, 4-NPPC 1 mM, replicate 1): 0.0007074
Activity of LmPC-PLC, 4-NPPC as substrate (slope) ([2]; Zn 5000 uM, 0 mM TCEP, LmPC-PLC 500 nM, 4-NPPC 1 mM, replicate 2): 0.000691
Activity of LmPC-PLC, 4-NPPC as substrate (slope) ([2]; Zn 5000 uM, 0 mM TCEP, LmPC-PLC 500 nM, 4-NPPC 1 mM, replicate 3): 0.0004664

O=C(O)CCP(CCC(=O)O)CCC(=O)O [TCEP]
Activity of LmPC-PLC, 4-NPPC as substrate (slope) ([2]; 1 mM TCEP, Zn 500 uM, LmPC-PLC 500 nM, 4-NPPC 1 mM, replicate 1): 6.624e-5
Activity of LmPC-PLC, 4-NPPC as substrate (slope) ([2]; 1 mM TCEP, Zn 500 uM, LmPC-PLC 500 nM, 4-NPPC 1 mM, replicate 2): 6.51e-5
Activity of LmPC-PLC, 4-NPPC as substrate (slope) ([2]; 1 mM TCEP, Zn 500 uM, LmPC-PLC 500 nM, 4-NPPC 1 mM, replicate 3): 6.545e-5
Activity of LmPC-PLC, 4-NPPC as substrate (slope) ([2]; 1 mM TCEP, Zn 5000 uM, LmPC-PLC 500 nM, 4-NPPC 1 mM, replicate 1): 0.0001618
Activity of LmPC-PLC, 4-NPPC as substrate (slope) ([2]; 1 mM TCEP, Zn 5000 uM, LmPC-PLC 500 nM, 4-NPPC 1 mM, replicate 2): 0.0001898
Activity of LmPC-PLC, 4-NPPC as substrate (slope) ([2]; 1 mM TCEP, Zn 5000 uM, LmPC-PLC 500 nM, 4-NPPC 1 mM, replicate 3): 0.0002041
Activity of LmPC-PLC, 4-NPPC as substrate (slope) ([2]; 5 mM TCEP, Zn 500 uM, LmPC-PLC 500 nM, 4-NPPC 1 mM, replicate 1, value 0 = no slope could be determined): 0.00000
Activity of LmPC-PLC, 4-NPPC as substrate (slope) ([2]; 5 mM TCEP, Zn 500 uM, LmPC-PLC 500 nM, 4-NPPC 1 mM, replicate 2, value 0 = no slope could be determined): 0.00000
Activity of LmPC-PLC, 4-NPPC as substrate (slope) ([2]; 5 mM TCEP, Zn 500 uM, LmPC-PLC 500 nM, 4-NPPC 1 mM, replicate 3, value 0 = no slope could be determined): 0.00000
Activity of LmPC-PLC, 4-NPPC as substrate (slope) ([2]; 5 mM TCEP, Zn 5000 uM, LmPC-PLC 500 nM, 4-NPPC 1 mM, replicate 1, value 0 = no slope could be determined): 0.00000
Activity of LmPC-PLC, 4-NPPC as substrate (slope) ([2]; 5 mM TCEP, Zn 5000 uM, LmPC-PLC 500 nM, 4-NPPC 1 mM, replicate 2, value 0 = no slope could be determined): 0.00000
Activity of LmPC-PLC, 4-NPPC as substrate (slope) ([2]; 5 mM TCEP, Zn 5000 uM, LmPC-PLC 500 nM, 4-NPPC 1 mM, replicate 3, value 0 = no slope could be determined): 0.00000
Activity of LmPC-PLC, 4-NPPC as substrate (slope) ([2]; 20 mM TCEP, Zn 500 uM, LmPC-PLC 500 nM, 4-NPPC 1 mM, replicate 1, value 0 = no slope could be determined): 0.00000
Activity of LmPC-PLC, 4-NPPC as substrate (slope) ([2]; 20 mM TCEP, Zn 500 uM, LmPC-PLC 500 nM, 4-NPPC 1 mM, replicate 2, value 0 = no slope could be determined): 0.00000
Activity of LmPC-PLC, 4-NPPC as substrate (slope) ([2]; 20 mM TCEP, Zn 500 uM, LmPC-PLC 500 nM, 4-NPPC 1 mM, replicate 3, value 0 = no slope could be determined): 0.00000
Activity of LmPC-PLC, 4-NPPC as substrate (slope) ([2]; 20 mM TCEP, Zn 5000 uM, LmPC-PLC 500 nM, 4-NPPC 1 mM, replicate 1, value 0 = no slope could be determined): 0.00000
Activity of LmPC-PLC, 4-NPPC as substrate (slope) ([2]; 20 mM TCEP, Zn 5000 uM, LmPC-PLC 500 nM, 4-NPPC 1 mM, replicate 2, value 0 = no slope could be determined): 0.00000
Activity of LmPC-PLC, 4-NPPC as substrate (slope) ([2]; 20 mM TCEP, Zn 5000 uM, LmPC-PLC 500 nM, 4-NPPC 1 mM, replicate 3, value 0 = no slope could be determined): 0.00000

c1ccc(CN(CCN(Cc2ccccn2)Cc2ccccn2)Cc2ccccn2)nc1 [TPEN, N,N,N′,N′-tetrakis(2-pyridinylmethyl)−1,2-ethanediamine]
inhibition of LmPC-PLC compared with O-phe ([2]; LmPC-PLC 500 nM, 4-NPPC 1 mM, pH 6.5, 50 μM ZnSO4, Supplementary Fig. 10): even stronger inhibition
Activity of LmPC-PLC towards 4-NPPC (slope) ([2]; inhibitor 2 uM, LmPC-PLC 500 nM, 4-NPPC 1 mM, 20 mM MES pH 6.5, 150 mM NaCl, replicate 1 of N=3): 0.0004788 abs/min
Activity of LmPC-PLC towards 4-NPPC (slope) ([2]; inhibitor 2 uM, LmPC-PLC 500 nM, 4-NPPC 1 mM, 20 mM MES pH 6.5, 150 mM NaCl, replicate 2 of N=3): 0.0004923 abs/min
Activity of LmPC-PLC towards 4-NPPC (slope) ([2]; inhibitor 2 uM, LmPC-PLC 500 nM, 4-NPPC 1 mM, 20 mM MES pH 6.5, 150 mM NaCl, replicate 3 of N=3): 0.0004163 abs/min
Activity of LmPC-PLC towards 4-NPPC (slope) ([2]; inhibitor 4 uM, LmPC-PLC 500 nM, 4-NPPC 1 mM, 20 mM MES pH 6.5, 150 mM NaCl, replicate 1 of N=3): 0.0004484 abs/min
Activity of LmPC-PLC towards 4-NPPC (slope) ([2]; inhibitor 4 uM, LmPC-PLC 500 nM, 4-NPPC 1 mM, 20 mM MES pH 6.5, 150 mM NaCl, replicate 2 of N=3): 0.0005039 abs/min
Activity of LmPC-PLC towards 4-NPPC (slope) ([2]; inhibitor 4 uM, LmPC-PLC 500 nM, 4-NPPC 1 mM, 20 mM MES pH 6.5, 150 mM NaCl, replicate 3 of N=3): 0.0004264 abs/min
Activity of LmPC-PLC towards 4-NPPC (slope) ([2]; inhibitor 8 uM, LmPC-PLC 500 nM, 4-NPPC 1 mM, 20 mM MES pH 6.5, 150 mM NaCl, replicate 1 of N=3): 0.0004334 abs/min
Activity of LmPC-PLC towards 4-NPPC (slope) ([2]; inhibitor 8 uM, LmPC-PLC 500 nM, 4-NPPC 1 mM, 20 mM MES pH 6.5, 150 mM NaCl, replicate 2 of N=3): 0.0004696 abs/min
Activity of LmPC-PLC towards 4-NPPC (slope) ([2]; inhibitor 8 uM, LmPC-PLC 500 nM, 4-NPPC 1 mM, 20 mM MES pH 6.5, 150 mM NaCl, replicate 3 of N=3): 0.0004182 abs/min
Activity of LmPC-PLC towards 4-NPPC (slope) ([2]; inhibitor 16 uM, LmPC-PLC 500 nM, 4-NPPC 1 mM, 20 mM MES pH 6.5, 150 mM NaCl, replicate 1 of N=3): 0.0003725 abs/min
Activity of LmPC-PLC towards 4-NPPC (slope) ([2]; inhibitor 16 uM, LmPC-PLC 500 nM, 4-NPPC 1 mM, 20 mM MES pH 6.5, 150 mM NaCl, replicate 2 of N=3): 0.0004155 abs/min
Activity of LmPC-PLC towards 4-NPPC (slope) ([2]; inhibitor 16 uM, LmPC-PLC 500 nM, 4-NPPC 1 mM, 20 mM MES pH 6.5, 150 mM NaCl, replicate 3 of N=3): 0.0003534 abs/min
Activity of LmPC-PLC towards 4-NPPC (slope) ([2]; inhibitor 31 uM, LmPC-PLC 500 nM, 4-NPPC 1 mM, 20 mM MES pH 6.5, 150 mM NaCl, replicate 1 of N=3): 0.0002559 abs/min
Activity of LmPC-PLC towards 4-NPPC (slope) ([2]; inhibitor 31 uM, LmPC-PLC 500 nM, 4-NPPC 1 mM, 20 mM MES pH 6.5, 150 mM NaCl, replicate 2 of N=3): 0.0003429 abs/min
Activity of LmPC-PLC towards 4-NPPC (slope) ([2]; inhibitor 31 uM, LmPC-PLC 500 nM, 4-NPPC 1 mM, 20 mM MES pH 6.5, 150 mM NaCl, replicate 3 of N=3): 0.0003443 abs/min

broad-range phospholipase C from Listeria monocytogenes (LmPC-PLC), wild type, mature form (from UniProt P33378 52-289) (enzyme)
stoichiometry N [3]: 2
